In PMC5889410, “Design and Biological Evaluation of Antifouling Dihydrostilbene Oxime Hybrids” (Marine Biotechnology (New York, N.y.), 2018):
In brackets after ≈: the same amount, converted by molar mass.

How the values were obtained:
[1] = system: Vibrio aestuarianus; assay: Bacterial adhesion assay (crystal violet, OD 595 nm); assay type: cell-based; settings: 48 h, read-out: MIC against the adhesion of marine bacteria, V.a.
Description: (§1) Cyprid larvae of B. improvisus were reared in a laboratory cultivating system at Tjärnö Marine Biological Laboratory, University of Gothenburg, Sweden, as previously described by Berntsson et al. ([2000]). Four pure, but non-axenic, marine microalgae (obtained from Algobank, Caen, France) and 10 marine bacterial strains were used (Table 1) as representative microfoulers. These strains represent fouling species encountered in both estuarine and marine environments (Moodie et al. [2017b]). The bacteria were grown at 26 °C in a marine medium, composed of 0.5% peptone (neutralized bacteriological peptone, Oxoid Ltd.) in filtered (Whatman 1001–270, pore size 11 μm) natural seawater. Microalgae were grown and maintained at 22 °C in F/2 medium.
(§2) Bacterial strain adhesion and growth were determined according to the methods of Thabard et al. ([2011]). Bacterial suspensions (100-μL aliquots, 2 × 10^8 colony forming units/mL) were aseptically added to the compound containing microplate wells (10–0.01 μg/mL), and the plates were incubated for 48 h at 26 °C. Media only was used as a blank. Bacterial growth was monitored spectroscopically at 630 nm. The minimal inhibitory concentration (MIC) for bacterial growth was defined as the lowest concentration which results in a decrease in OD. After 48-h incubation time, the bacterial adhesion assay was conducted by emptying the wells and rinsing with sterile seawater (100 μL) to remove non-attached cells, and air-drying at room temperature. The residual bacterial biofilm was stained with aqueous crystal violet (100 μL, 0.3% v/v) and the OD measured at 595 nm (Sonak and Bhosle [1995]). […] If inhibition was observed, toxicity tests were conducted. The well contents were transferred into a flask of fresh media, and growth was measured after 5 days of additional incubation. The mode of action was deemed biostatic if an increase in OD was measured at 595 nm (Moodie et al. [2017a]).

[2] = system: Balanus improvisus cyprid larvae; assay: whole plant or invertebrate; assay type: in vivo; settings: for IC50: Amphibalanus improvisus, 120 h, read-out: IC50 (cyprid settlement inhibition)
Description: as §1
Stock solutions of compounds in DMSO were serially diluted in untreated polystyrene Petri dishes containing 10 mL of filtered (0.2 μm) seawater, affording final concentrations ranging from 0.1 to 10 μg/mL. Freshly molted balanide cyprids (18–22) were added to each Petri dish and incubated at ambient temperature (20–25 °C) for 5 days. Cyprid metamorphosis was assessed using a dissecting microscope where the numbers of juvenile settled, free-swimming, and dead cyprids were noted. Initial compound screening was conducted at 5 μg/mL, and full IC50 determination was performed only on compounds displaying > 50% inhibition at that concentration. The IC50 was defined as the concentration preventing 50% of the cyprid settlement on the Petri dish surface. Each concentration was replicated four times (n = 4), and dishes containing 0.1% of DMSO were used as negative controls. The commercial AF agent Sea-nine™ was employed as a positive control.

[3] = system: microalgae; assay: Microalgal adhesion and growth, whole panel of four species; assay type: cell-based, four marine microalgae; settings: 10–0.01 μg/mL tested
Description: as §1
(§3) Microplates containing the compounds in ranging concentrations (10–0.01 μg/mL) were prepared from MeOH stock solutions as previously described (Trepos et al. [2014]; Moodie et al. [2017a]). Microalgal stock solutions were prepared using the chlorophyll analysis methodology of Chambers et al. ([2011]). The pretreated microplate wells were treated with 100 μL of the algal stock solutions (0.1 mg chlorophyll a/mL). The plates were then incubated for 5 days at 20 °C under constant light exposure (140 μmol m^−2 s^−1). Both microalgal adhesion and growth inhibition were measured. Growth was determined by analysis of liberated chlorophyll a after centrifugation and methanol addition. Chlorophyll a was quantified fluorometrically. MIC value for algal growth was defined as the lowest concentration yielding a decrease in chlorophyll a content. Microalgal adhesion was determined in an analogous manner where the non-attached algal cells were removed prior to methanol addition (100 μL), releasing chlorophyll a from the remaining algal biofilms. The MIC for adhesion was defined as the lowest compound concentration causing a reduction in […]. Toxicity experiments were performed in an analogous manner to those described for the bacterial assays.

[4] = system: Vibrio aestuarianus; assay: Bacterial growth assay (OD 630 nm); assay type: cell-based; settings: 48 h incubation, 10–0.01 μg/mL tested, read-out: MIC against the growth of marine bacteria, V.a.
Description: as §1, §2

[5] = system: Pseudoalteromonas elyakovii; assay: Bacterial growth assay (OD 630 nm); assay type: cell-based; settings: 48 h incubation, 10–0.01 μg/mL tested, read-out: MIC against the growth of marine bacteria, P.e.
Description: as §1, §2

[6] = system: Vibrio harveyi; assay: Bacterial growth assay (OD 630 nm); assay type: cell-based; settings: 48 h incubation, 10–0.01 μg/mL tested, read-out: MIC against the growth of marine bacteria, V.h.
Description: as §1, §2

[7] = system: Roseobacter litoralis; assay: Bacterial growth assay (OD 630 nm); assay type: cell-based; settings: 48 h incubation, 10–0.01 μg/mL tested, read-out: MIC against the growth of marine bacteria, R.l.
Description: as §1, §2

[8] = system: Shewanella putrefaciens; assay: Bacterial growth assay (OD 630 nm); assay type: cell-based; settings: 48 h incubation, 10–0.01 μg/mL tested, read-out: MIC against the growth of marine bacteria, S.p.
Description: as §1, §2

[9] = system: Halomonas aquamarina; assay: Bacterial growth assay (OD 630 nm); assay type: cell-based; settings: Vreelandella aquamarina, 48 h incubation, 10–0.01 μg/mL tested, read-out: MIC against the growth of marine bacteria, H.a.
Description: as §1, §2

[10] = system: Vibrio natriegens; assay: Bacterial growth assay (OD 630 nm); assay type: cell-based; settings: 48 h incubation, 10–0.01 μg/mL tested, read-out: MIC against the growth of marine bacteria, V.n.
Description: as §1, §2

[11] = system: Vibrio proteolyticus; assay: Bacterial growth assay (OD 630 nm); assay type: cell-based; settings: 48 h incubation, 10–0.01 μg/mL tested, read-out: MIC against the growth of marine bacteria, V.p.
Description: as §1, §2

[12] = system: Vibrio carchariae; assay: Bacterial growth assay (OD 630 nm); assay type: cell-based; settings: Vibrio harveyi, 48 h incubation, 10–0.01 μg/mL tested, read-out: MIC against the growth of marine bacteria, V.c.
Description: as §1, §2

[13] = system: Porphyridium purpureum; assay: Microalgal growth assay (chlorophyll a); assay type: cell-based; settings: 120 h, 5 days incubation, 10–0.01 μg/mL tested, read-out: MIC against the growth (G) of microalgae, P. purpureum
Description: as §1, §3

[14] = system: Cylindrotheca closterium; assay: Microalgal growth assay (chlorophyll a); assay type: cell-based; settings: 120 h, 5 days incubation, 10–0.01 μg/mL tested, read-out: MIC against the growth (G) of microalgae, C. closterium
Description: as §1, §3

[15] = system: Halamphora coffeaeformis; assay: Microalgal growth assay (chlorophyll a); assay type: cell-based; settings: Halamphora coffeiformis, 120 h, 5 days incubation, 10–0.01 μg/mL tested, read-out: MIC against the growth (G) of microalgae, H. coffeaformis
Description: as §1, §3

[16] = system: Pleurochrysis roscoffensis; assay: Microalgal growth assay (chlorophyll a); assay type: cell-based; settings: Chrysotila roscoffensis, 120 h, 5 days incubation, 10–0.01 μg/mL tested, read-out: MIC against the growth (G) of microalgae, P. roscoffensis
Description: as §1, §3

[17] = system: Porphyridium purpureum; assay: Microalgal adhesion assay (chlorophyll a); assay type: cell-based; settings: 120 h, 5 days incubation, 10–0.01 μg/mL tested, read-out: MIC against the adhesion (A) of microalgae, P. purpureum
Description: as §1, §3

[18] = system: Halamphora coffeaeformis; assay: Microalgal adhesion assay (chlorophyll a); assay type: cell-based; settings: Halamphora coffeiformis, 120 h, 5 days incubation, 10–0.01 μg/mL tested, read-out: MIC against the adhesion (A) of microalgae, H. coffeaformis
Description: as §1, §3

[19] = system: Pleurochrysis roscoffensis; assay: Microalgal adhesion assay (chlorophyll a); assay type: cell-based; settings: Chrysotila roscoffensis, 120 h, 5 days incubation, 10–0.01 μg/mL tested, read-out: MIC against the adhesion (A) of microalgae, P. roscoffensis
Description: as §1, §3

[20] = system: marine bacteria; assay: Bacterial adhesion assay, whole panel of ten strains; assay type: cell-based, 10 marine bacterial strains; settings: tested up to 10 μg/mL, active = MIC of 10 μg/mL or below
Description: as §1, §2

[21] = system: Vibrio harveyi; settings: ref Trepos et al. ([2015]); cited from earlier work
[22] = system: Vibrio natriegens; settings: ref Trepos et al. ([2015]); cited from earlier work
[23] = system: Vibrio harveyi; settings: ref Trepos et al. ([2015]); cited from earlier work; remark: listed apart in the source
[24] = system: Vibrio aestuarianus; settings: ref Trepos et al. ([2015]); cited from earlier work
[25] = system: Halamphora coffeaeformis; settings: ref Trepos et al. ([2015]); cited from earlier work
[26] = system: Halomonas aquamarina; settings: ref Trepos et al. ([2015]); cited from earlier work
[27] = system: Vibrio carchariae; settings: ref Trepos et al. ([2015]); cited from earlier work
[28] = system: Vibrio proteolyticus; settings: ref Trepos et al. ([2015]); cited from earlier work
[29] = system: Shewanella putrefaciens; settings: ref Trepos et al. ([2015]); cited from earlier work
[30] = system: Roseobacter litoralis; settings: ref Trepos et al. ([2015]); cited from earlier work
[31] = system: Pseudoalteromonas elyakovii; settings: ref Trepos et al. ([2015]); cited from earlier work
[32] = system: Pleurochrysis roscoffensis; settings: ref Trepos et al. ([2015]); cited from earlier work
[33] = system: Halamphora coffeaeformis; settings: ref Trepos et al. ([2015]); cited from earlier work; remark: listed apart in the source
[34] = system: Porphyridium purpureum; settings: ref Trepos et al. ([2015]); cited from earlier work
[35] = system: Pleurochrysis roscoffensis; settings: ref Trepos et al. ([2015]); cited from earlier work; remark: listed apart in the source
[36] = system: Vibrio proteolyticus; settings: ref Trepos et al. ([2015]); cited from earlier work; remark: listed apart in the source
[37] = system: Cylindrotheca closterium; settings: ref Trepos et al. ([2015]); cited from earlier work
[38] = system: Vibrio aestuarianus; settings: ref Trepos et al. ([2015]); cited from earlier work; remark: listed apart in the source
[39] = system: Porphyridium purpureum; settings: ref Trepos et al. ([2015]); cited from earlier work; remark: listed apart in the source
[40] = system: Halomonas aquamarina; settings: ref Trepos et al. ([2015]); cited from earlier work; remark: listed apart in the source
[41] = system: Vibrio carchariae; settings: ref Trepos et al. ([2015]); cited from earlier work; remark: listed apart in the source
[42] = system: Cylindrotheca closterium; settings: ref Trepos et al. ([2015]); cited from earlier work; remark: listed apart in the source

SMILES: COc1cc(C(Cc2cccc(O)c2)=NO)ccc1O [Compound 13, 1-(3-methoxy-4-hydroxyphenyl)-1-hydroxyimino-2-(3’-hydroxyphenyl)-ethane]
- MIC [1]: 0.1 µg/mL (≈ 0.366 µM)
- IC50 [2]: 5 µg/mL (≈ 18.3 µM)
- Toxicity (%) (dead cyprids) ([2]; Balanus improvisus, in vivo, 5 days, 5 μg/mL): 1.6%
- MIC / activity against the attachment and growth of microalgae [3]: inhibited both the settlement and growth of all of the tested species
- MIC [4]: > 10 µg/mL
- MIC [5]: > 10 µg/mL
- MIC [6]: > 10 µg/mL
- MIC [7]: > 10 µg/mL
- MIC [8]: > 10 µg/mL
- MIC [9]: > 10 µg/mL
- MIC [10]: 1 µg/mL (≈ 3.66 µM)
- MIC [11]: > 10 µg/mL
- MIC [12]: > 10 µg/mL
- MIC [13]: 1 µg/mL (≈ 3.66 µM)
- MIC [14]: 1 µg/mL (≈ 3.66 µM)
- MIC [15]: 0.1 µg/mL (≈ 0.366 µM)
- MIC [16]: 0.1 µg/mL (≈ 0.366 µM)
- MIC [17]: 10 µg/mL (≈ 36.6 µM)
- MIC [18]: 0.01 µg/mL (≈ 0.0366 µM)
- MIC [19]: 1 µg/mL (≈ 3.66 µM)
- MIC / activity against the adhesion of all bacteria tested [20]: displayed inhibitory activities

SMILES: CCCCCCCCn1sc(Cl)c(Cl)c1=O [Sea-nine™]
- MIC against the adhesion of marine bacteria, V.h. [21]: 1 µg/mL
- MIC against the growth of marine bacteria, V.n. [22]: 1 µg/mL
- MIC against the growth of marine bacteria, V.h. [23]: 1 µg/mL
- MIC against the growth of marine bacteria, V.a. [24]: < 0.01 µg/mL
- IC50 [2]: 0.25 µg/mL (≈ 0.886 µM)
- MIC against the adhesion (A) of microalgae, H. coffeaformis [25]: < 0.01 µg/mL
- MIC against the growth of marine bacteria, H.a. [26]: 0.1 µg/mL
- MIC against the adhesion of marine bacteria, V.c. [27]: < 0.01 µg/mL
- MIC against the adhesion of marine bacteria, V.p. [28]: 0.01 µg/mL
- MIC against the growth of marine bacteria, S.p. [29]: 1 µg/mL
- MIC against the growth of marine bacteria, R.l. [30]: 1 µg/mL
- MIC against the growth of marine bacteria, P.e. [31]: 0.1 µg/mL
- MIC against the growth (G) of microalgae, P. roscoffensis [32]: < 0.01 µg/mL
- MIC against the growth (G) of microalgae, H. coffeaformis [33]: < 0.01 µg/mL
- MIC against the adhesion (A) of microalgae, P. purpureum [34]: < 0.01 µg/mL
- MIC against the adhesion (A) of microalgae, P. roscoffensis [35]: < 0.01 µg/mL
- MIC against the growth of marine bacteria, V.p. [36]: 0.01 µg/mL
- MIC against the growth (G) of microalgae, C. closterium [37]: < 0.01 µg/mL
- MIC against the adhesion of marine bacteria, V.a. [38]: 1 µg/mL
- MIC against the growth (G) of microalgae, P. purpureum [39]: < 0.01 µg/mL
- MIC against the adhesion of marine bacteria, H.a. [40]: < 0.01 µg/mL
- MIC against the growth of marine bacteria, V.c. [41]: < 0.01 µg/mL
- MIC against the adhesion (A) of microalgae, C. closterium [42]: < 0.01 µg/mL
